Test results reported in patent US20210283204A1, “Lin28a ACTIVATOR AND USE THEREFOR” (TES Holdings CO., LTD., priority 2016, published 2021).

Tested on: Lin28a
Experiment: Lin28a expression induction in mouse vascular endothelial cell line TKD2 cell (RT-PCR, agarose gel)
Format: cell-based
Settings: 100 μg/mL, cultured for 5 days, FIG. 1
Protocol: Mouse vascular endothelial cell line TKD2 cell (National Institute of Biomedical Innovation, Health, and Nutrition, distributed from JCRB Cell Bank, Cell number: IF050374) was sown in advance in a 6-well plate to be 4×10^4 cells/well, and cultured overnight at 33° C. in 5% CO2 environment.
Subsequently, on the day after the date when the mouse vascular endothelial cell line TKD2 cell was sown, the exocrine secretion of Saccharomyces boulardii prepared in (1) was added to the culture medium to reach a final concentration of 100 μg/mL, and cultured for 5 days while performing addition. After the addition, the culture medium was not exchanged at all. […]
After culturing, the cell was isolated and recovered by using 0.25% of Trypsin-EDTA solution (manufactured by ThermoFisher Corporation, 25200056). […] From the total RNA, cDNA was produced by using ImProm-II (registered trademark) reverse Transcription System (Promega A3801), and expression of Lin28a was monitored by PCR using primers shown in the following Table 1. […]

ganglioside
expression of Lin28a: expression of Lin28a was not induced
